# In patent US20220054432A1, “COMPOSITION FOR INCREASING RETENTION OF CAROTENOID IN BLOOD” (ENEOS Corporation, priority 2018, published 2022):
# Legend:
# 8-OHdG = assay: Measurement of 8-OHdG in blood in mice (Test Example 4); assay type: in vivo, ICR strain mice; settings: 300 mg/kg body weight orally once daily for 14 days, ELISA, vs control administration group (olive oil)
# Text: Adonixanthin was used as an asymmetric carotenoid, and astaxanthin was used as a symmetric carotenoid. As experimental animals, ICR strain mice were used. Thirty (30) mice were used, and 10 mice each were assigned to the adonixanthin-administration group, the astaxanthin-administration group, and the control administration group. […]
# After end of administration for 14 days, blood was collected from the postcava of the mice under isoflurane absorption anesthesia. […] Thereafter, 8-OHdG of the collected serum was measured using 8-hydroxy 2 deoxyguanosine ELISA Kit (ab201734) (manufactured by Abcam plc.) as an ELISA kit for measurement of 8-OHdG.
# Each of the concentration of 8-OHdG in serum collected from the adonixanthin-administration group, and the concentration of 8-OHdG in serum collected from the astaxanthin-administration group, and the concentration of 8-OHdG in serum collected from the control administration group is shown in FIG. 4. The concentration was expressed as mean±standard error. […]
# [1] = Retention in blood: carotenoid concentration in serum of cynomolgus monkeys (Test Example 3); assay type: in vivo; settings: cynomolgus monkey, 50 mg/kg intragastric once daily for 10 days, serum 4 hours after last administration
# Experimental: As experimental animals, cynomolgus monkeys were used. Two cynomolgus monkeys were used, and an adonixanthin dosing solution was administered to one monkey (adonixanthin-administering monkey), while an astaxanthin dosing solution was administered to the other monkey (astaxanthin-administering monkey). As the dosing solutions, the dosing solutions obtained in Preparation Example 2 were used, and the dosing solutions at a dose such that the dose of adonixanthin or astaxanthin was 50 mg/kg body weight were administered once daily for 10 days (the day of initiation of administration of the dosing solutions was defined as day 1). […] The dose in each administration was calculated based on the latest body weight at each administration time point (the body weight was measured on the day of initiation of acclimation, the day of end of acclimation, the day of initiation of administration, and before administration on day 8 of administration using an electric balance (HP-40K or GP-40K, both of which are manufactured by A&D Company, Limited)). […] Regarding each serum 4 hours after the last administration of the dosing solutions, each of the concentration of adonixanthin in serum collected from the adonixanthin-administering monkey and the concentration of astaxanthin in serum collected from the astaxanthin-administering monkey was measured. […]
Compound,"Concentration of 8-OHdG in serum, FIG. 4 (8-OHdG)","Concentration in serum, FIG. 3 [1]"
"CC1=C(/C=C/C(C)=C/C=C/C(C)=C/C=C/C=C(C)/C=C/C=C(C)/C=C/C2=C(C)C(=O)C(O)CC2(C)C)C(C)(C)CC(O)C1=O (stereo not drawn) [astaxanthin, 3,3′-dihydroxy-β,β-carotene-4,4′-dione]",low,exist in serum at a high concentration
"CC1=C(/C=C/C(C)=C/C=C/C(C)=C/C=C/C=C(C)/C=C/C=C(C)/C=C/C2=C(C)C(=O)C(O)CC2(C)C)C(C)(C)CC(O)C1 (stereo not drawn) [adonixanthin, 3,3′-dihydroxy-β,β-caroten-4-one]",significantly lower than that in the control administration group,especially likely to be retained in blood
